In PMC5116089, “Sulfheme formation during homocysteine S-oxygenation by catalase in cancers and neurodegenerative diseases” (Nature Communications, 2016):

Target: T1, Bovine liver catalase (Bos taurus, UniProt P00432)
T1 construct: Bovine liver catalase was also purchased from Sigma-Aldrich; purchased Sigma-Aldrich; host or cells: bovine liver
T1 sequence (P00432 2-527 limits assumed): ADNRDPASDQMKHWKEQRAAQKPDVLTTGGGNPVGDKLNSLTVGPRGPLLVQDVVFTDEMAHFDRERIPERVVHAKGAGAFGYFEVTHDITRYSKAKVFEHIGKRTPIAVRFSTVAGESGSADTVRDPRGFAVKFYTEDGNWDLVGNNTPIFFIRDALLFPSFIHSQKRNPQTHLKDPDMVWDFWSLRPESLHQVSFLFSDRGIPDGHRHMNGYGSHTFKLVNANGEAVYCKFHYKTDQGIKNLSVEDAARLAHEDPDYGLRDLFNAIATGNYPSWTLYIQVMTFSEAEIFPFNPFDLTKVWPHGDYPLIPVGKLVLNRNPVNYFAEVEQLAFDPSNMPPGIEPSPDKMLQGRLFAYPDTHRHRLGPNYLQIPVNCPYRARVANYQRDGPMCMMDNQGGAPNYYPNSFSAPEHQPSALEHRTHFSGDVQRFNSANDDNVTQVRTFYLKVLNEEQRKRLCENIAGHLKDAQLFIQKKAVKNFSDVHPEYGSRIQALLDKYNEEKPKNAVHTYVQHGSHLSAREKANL
Test: Ultraviolet-visible spectral changes and HPLC-MS of extracted heme after reaction of CAT with thiols
Type: biochemical
Experimental: Ultraviolet–visible spectra were recorded on a Cary 300 Scan or an Uvikon 941 spectrophotometer equipped with a temperature equilibrating water bath (±1 °C). Spectral changes over time were recorded when CAT was incubated with L-HCys (0.2 or 2 mM), L-Cys (0.2, 2 or 9 mM) or GSH (1 or 30 mM) at 25 °C in a 1 ml quartz cuvette containing a solution of CAT (2.7–5.9 μM) in 50 mM KPi, pH 7.4±1 mM DTPA. Due to half-site reactivity of biological thiols with CAT, the data were recorded versus a blank containing half the concentrations of CAT used in the experiments, that is, a solution of 1.35–2.95 μM CAT in 50 mM KPi at pH 7.4±1 mM DTPA. Reactions were initiated by addition of the thiol-containing compounds. Comparative kinetic studies were performed by incubating CAT ([…] in the experiment, 1.35–1.5 μM in the blank) with 2 mM L-HCys in 50 mM KPi, pH 7.4, 1 mM DTPA with or without […], 5,5-dimethyl-1,3-cyclohexanedione (dimedone, 4 mM), BCN (0.1 mM) or SOD, 40 U). All the experiments were performed at least in duplicate.
HPLC–MS or –HRMS spectra of the prosthetic heme-iron group were recorded on a Thermo-Finnigan Surveyor or a Thermos Fisher Accela equipped with an XTerra MS C18 3.5 μm (2.1 × 50 mm) and a pre-guard column coupled to an ESI LCQ Advantage or an Exactive orbitrap spectrometer, respectively. The prosthetic heme group was extracted on ice by incubating a solution of CAT (5–8 μM) with 1.65 volume of 50 mM Gly-HCl pH 2.0 and 2.65 vol of butan-2-one kept a −20 °C. After vigorous mixing and a short centrifugation step (13,000 r.p.m., 4 °C, 30 s), the upper organic phase was quickly removed and mixed with a solution of 2 M imidazole (10% v/v) to stabilize the extracted cofactor and permit analysis. […] Control experiments (CAT, thiol-compounds and additives alone as well CAT and additives or thiol-compounds and additives) were performed in each instance and analysed in parallel.

N[C@@H](CS)C(=O)O [Cys, cysteine]
heme-iron species formed from CAT (physiological concentration of Cys (200 μM) in the presence of iron, no DTPA): only leads to the reversible formation of compound II

N[C@@H](CCC(=O)N[C@@H](CS)C(=O)NCC(=O)O)C(=O)O [GSH, glutathione]
heme-iron species formed from CAT (GSH (30 mM)): compound II formation was only observed

NC(CCS)C(=O)O (stereo not drawn) [HCys, homocysteine]
heme-iron species formed from CAT (2 mM HCys, 1 mM DTPA, pH 7.4, 25 °C): induces the production of a sulfheme species
